# Measured values from ChEMBL document CHEMBL1201862, “PubChem BioAssay data set” (2004).
# Calls of active or inactive are those of the source.
# What was measured:
# Bcl-2-related protein A1 [1] = molecular target: T1, Bcl-2-related protein A1 (Mus musculus, UniProt Q07440); test: small-molecule antagonists of Bfl-1/BH3 interaction – biochemical, TR-FRET, mouse Bfl-1, confirmation (AID 621);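 further: TR-FRET binding of GST-Bfl-1 to FITC-labelled Bid peptide via terbium antibody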
# T1 sequence (Q07440 whole entry): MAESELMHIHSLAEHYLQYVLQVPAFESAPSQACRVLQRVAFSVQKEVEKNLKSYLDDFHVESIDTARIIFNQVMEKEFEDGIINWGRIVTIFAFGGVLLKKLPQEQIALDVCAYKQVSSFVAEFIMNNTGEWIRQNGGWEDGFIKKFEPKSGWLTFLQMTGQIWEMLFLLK
# [2] = luciferase reporter signal suppression in cells – H4 neuroglioma cells, luminescence, dose response (AID 1990); format: functional, cell-based
# Nonstructural protein 1 = Nonstructural protein 1 (Influenza A virus, UniProt Q194T2); format: functional, Influenza A virus (A/California/07/2009(H1N1))
# [3] = Luminescence Cell-Based Dose Response HTS to Identify Inhibitors of 5'UTR Stem-Loop Driven Prion Protein mRNA Translation in H4 Neuroglioblastoma Cells. [Related pubchem assays: 1827 (Project Summary), 1813 (Primary HTS)]; format: functional
# INS1 = test: INS-1E survival protection against cytokine death – cell-based, luminescence, retest, dose response (AID 449756); format: functional; conditions: Rattus norvegicus;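 further: cell death triggered by IL-1 beta plus TNF-alpha plus IFN-gamma mixture; protective hits raise ATP signal compared with cytokine alone wells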
# Bcl-2-related protein A1 [4] = molecular target: T1, Bcl-2-related protein A1; test: displacement of Bid BH3 peptide from Bfl-1 – biochemical, fluorescence polarization, FITC-Bid, mouse, primary screen (AID 432)
# [5] = NIH3T3 cell viability loss – ATP luminescence, mouse fibroblasts, counter-screen, dose response (AID 2010); format: functional, cell-based;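 further: cells exposed to compound for about 90 hours before reading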
# [6] = Trypanosoma cruzi growth suppression in host cells – NIH3T3 host cells, beta-gal luminescence, confirmation (AID 2044); format: functional, cell-based;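 further: intracellular parasites grown in NIH/3T3 mouse fibroblasts as host cells; luminescent beta-galactosidase reporter signal from transgenic T. cruzi replicating inside host cells; inhibitors lower the luminescence signal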
# [7] = alpha-synuclein stem-loop luciferase translation blockers – H4 neuroglioma cells, luminescence, confirmation (AID 1988); format: functional, cell-based
# Paired box protein Pax-8 = Paired box protein Pax-8 (Homo sapiens, UniProt Q06710); test: PAX8 transcriptional activity inhibition in RMG-I – RMG-I cells, luciferase, cherry-pick, dose response (AID 687027); format: functional, cell-based;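 further: luciferase reporter driven by Pax8 target thyroperoxidase promoter measured by SteadyGlo luminescence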
# [8] = Luminescent dose response cell-based high throughput screening assay for inhibitors of the Janus kinase 2 mutant JAK2V617F. [Related pubchem assays: 1446 (Primary screen.), 1521 (Confirmation assay.), 1486 (Counter screen.)]; format: functional
# Vero = test: cells; format: functional; conditions: Chlorocebus sabaeus
# [9] = Dd2 malaria parasite growth inhibition potency – SYBR Green, dry powder samples, dose response (AID 1159566); format: functional, cell-based;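 further: potency for growth inhibition with lower SYBR green DNA signal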
# [10] = toxicity to human HepG2 hepatoma cells – cell-based, plate reader, dry powder samples, cytotoxicity control, dose response (AID 1159569); format: functional;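 further: inhibitor potency with signal falling toward the positive control level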
# [11] = growth inhibition of yeast DHODH-expressing 3D7 parasites – SYBR Green, dry powder samples, dose response (AID 1159570); format: functional, cell-based;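 further: parasite growth measured after 72 hours of compound exposure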
# [12] = growth inhibition of PfATP4-mutant resistant parasites – NITD609-resistant line, SYBR Green, dry powder, dose response (AID 1159571); format: functional, cell-based;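 further: parasites synchronized at ring stage by sorbitol before testing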
# [13] = P. falciparum Dd2 growth inhibitors, dose response, SYBR Green, cherry-picked samples (AID 1159567); format: functional, cell-based
# [14] = toxicity to HepG2 liver cells – cell-based, plate reader, dry powder, set 6, cytotoxicity control, dose response (AID 743311); format: functional
# cells = conditions: HEK293
# [15] = toxicity to A549 lung cells – cell-based, plate reader, dry powder, set 6, cytotoxicity control, dose response (AID 743312); format: functional
# [16] = molecular target: Diphosphomevalonate decarboxylase (Streptococcus pneumoniae serotype 2 (strain D39 / NCTC 7466), UniProt Q9FD53); test: diphosphomevalonate decarboxylase inhibitor confirmation – biochemical, cuvette format, coupled NADH fluorescence (AID 1028); format: functional
# [17] = Dd2 parasite growth inhibition in erythrocytes – SYBR Green, dry powder samples, set 4, dose response (AID 1159572); format: functional, cell-based
# [18] = viability loss in THP-1 monocytes – THP-1 cells, cytotoxicity control for Vif-APOBEC3G degradation inhibitor project, dose response (AID 1117359); format: functional; conditions: THP-1
# Transthyretin = Transthyretin (Homo sapiens, UniProt P02766); test: Luminescence-based cell-based high throughput dose response assay to identify activators of Transthyretin (TTR) transcription.; format: functional
# Diphosphomevalonate decarboxylase, sequence (Q9FD53 whole entry): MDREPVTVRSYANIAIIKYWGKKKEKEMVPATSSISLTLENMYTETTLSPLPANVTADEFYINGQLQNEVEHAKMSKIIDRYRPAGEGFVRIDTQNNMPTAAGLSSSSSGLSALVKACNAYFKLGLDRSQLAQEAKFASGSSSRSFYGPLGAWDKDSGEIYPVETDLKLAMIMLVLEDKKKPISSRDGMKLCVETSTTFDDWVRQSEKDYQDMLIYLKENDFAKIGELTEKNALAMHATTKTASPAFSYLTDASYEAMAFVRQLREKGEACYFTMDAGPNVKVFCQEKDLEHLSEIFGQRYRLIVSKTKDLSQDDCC
# Paired box protein Pax-8, sequence (Q06710 whole entry): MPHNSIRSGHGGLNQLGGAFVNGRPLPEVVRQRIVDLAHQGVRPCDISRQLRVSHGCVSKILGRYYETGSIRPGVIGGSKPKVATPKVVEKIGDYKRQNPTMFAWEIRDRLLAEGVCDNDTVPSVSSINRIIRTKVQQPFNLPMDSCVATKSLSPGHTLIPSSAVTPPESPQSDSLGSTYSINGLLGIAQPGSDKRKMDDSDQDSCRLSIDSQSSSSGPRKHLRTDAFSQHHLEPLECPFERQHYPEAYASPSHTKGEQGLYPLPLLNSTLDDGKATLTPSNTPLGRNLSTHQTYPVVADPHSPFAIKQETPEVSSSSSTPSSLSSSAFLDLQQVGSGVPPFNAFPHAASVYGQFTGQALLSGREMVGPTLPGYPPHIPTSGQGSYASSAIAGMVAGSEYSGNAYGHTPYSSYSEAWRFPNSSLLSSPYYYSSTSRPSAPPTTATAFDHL
# Nonstructural protein 1, sequence (Q194T2 whole entry): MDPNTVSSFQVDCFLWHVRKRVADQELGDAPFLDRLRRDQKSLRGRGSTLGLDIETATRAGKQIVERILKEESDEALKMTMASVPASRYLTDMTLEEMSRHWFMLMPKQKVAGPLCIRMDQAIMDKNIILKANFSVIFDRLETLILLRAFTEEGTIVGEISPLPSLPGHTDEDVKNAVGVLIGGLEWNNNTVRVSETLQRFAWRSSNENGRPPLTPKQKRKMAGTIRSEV
compound,measurement,setting,value
Nc1ccc(N2CCCCC2)cc1N1CCCCC1,IC50,Bcl-2-related protein A1 [1],> 100 µM (not active)
same,EC50,[2],> 120 µM (not active)
same,IC50,Nonstructural protein 1,16.1 µM (active)
same,EC50,[3],> 120 µM (not active)
same,AC50,INS1,12.9 µM (active)
same,IC50,Bcl-2-related protein A1 [4],> 100 µM (not active)
same,EC50,[5],> 60 µM (not active)
same,EC50,[6],0.197 µM (active)
same,EC50,[7],> 120 µM (not active)
Cc1nc2ccccc2c(O)c1C(=O)/C=C/c1ccccc1,AC50,Paired box protein Pax-8,6.93 µM (active)
same,IC50,[8],1.71 µM (active)
same,CC50,Vero,7.78 µM (active)
COc1ccc(C#Cc2ccc3c(c2)[C@@H]2[C@@H](CCN2C(=O)C2CCCC2)[C@@H](CO)N3)cc1,AC50,[9],1.09 µM (active)
same,AC50,[10],> 100 µM (inactive)
same,AC50,[11],1.31 µM (active)
same,AC50,[12],1.1 µM (active)
same,AC50,[13],2.82 µM (active)
CC(C)c1ccccc1OCCn1c(=S)[nH]c2ccccc21,AC50,[14],32.9 µM (active)
same,AC50,cells,27.6 µM (active)
same,AC50,[15],21.1 µM (active)
O=C(NCC1CC1)c1ccc(-n2sc3ccccc3c2=O)cc1,IC50,[16],11.9 µM (active)
CCCNC(=O)N1CCC2(CC1)CN(C(C)=O)[C@@H](CO)c1[nH]c3cc(OC)ccc3c12,AC50,[17],9.51 µM (active)
CC(C)Oc1ccc(C(=O)N(Cc2ccco2)C2CCS(=O)(=O)C2)cc1 (centres undefined),CC50,[18],> 40 µM (active)
Cn1ncc(Cl)c1C(=O)N1CCc2ccccc21,EC50,Transthyretin,> 167 µM (inactive)
